In BindingDB's records for patent US10377742 (Rigel Pharmaceuticals, 2019):

Biological target: 5'-AMP-activated protein kinase catalytic subunit alpha-2 (Homo sapiens, UniProt P54646)
Experiment: enzyme-linked immunosorbent assay
Protocol: Compounds were assayed for their ability to activate AMPK using an enzyme-linked immunosorbent assay. Reagents and procedures for measuring AMPK activation are well known and kits for AMPK activation assays are commercially available.

Chain of 5'-AMP-activated protein kinase catalytic subunit alpha-2 (P54646 whole entry): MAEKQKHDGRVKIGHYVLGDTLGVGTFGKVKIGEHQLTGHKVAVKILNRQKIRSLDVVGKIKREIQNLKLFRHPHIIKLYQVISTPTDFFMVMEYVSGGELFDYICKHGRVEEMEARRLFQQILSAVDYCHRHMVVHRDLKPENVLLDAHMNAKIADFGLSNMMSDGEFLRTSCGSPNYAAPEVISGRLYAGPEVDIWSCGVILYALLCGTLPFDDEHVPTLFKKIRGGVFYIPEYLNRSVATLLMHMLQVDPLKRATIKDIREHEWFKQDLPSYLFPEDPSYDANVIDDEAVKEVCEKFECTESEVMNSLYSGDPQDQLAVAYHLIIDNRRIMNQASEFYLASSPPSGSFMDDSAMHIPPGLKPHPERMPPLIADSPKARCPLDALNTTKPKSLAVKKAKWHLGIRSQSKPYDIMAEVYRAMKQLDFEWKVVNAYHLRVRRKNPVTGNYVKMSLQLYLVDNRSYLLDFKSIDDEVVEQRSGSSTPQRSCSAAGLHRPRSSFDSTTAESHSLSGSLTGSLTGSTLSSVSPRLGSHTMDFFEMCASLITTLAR

EC50	SMILES
> 1000 nM	O=C(Nc1ccccc1-c1ccccc1)c1ccc(C(=O)N2CCN(Cc3ccc(F)cc3)CC2)cn1 [US10377742, Compound 19]
> 1000 nM	O=C(Nc1ccc(-c2ccc([N+](=O)[O-])cc2)cc1)c1ccc(C(=O)N2CCN(Cc3ccc(F)cc3)CC2)cn1 [US10377742, Compound 20]
